Reference: patent publication US20170166598A1, “HETEROARYL COMPOUNDS FOR KINASE INHIBITION” (ARIAD PHARMACEUTICALS, INC., priority 2014, published 2017)

Legend:
Type in all cases: cell-based
[1] = target: T1, human EGFR exon 20 insertion NPG (H773_V774insNPG) (Homo sapiens, UniProt P00533, INS772GNP); test: Ba/F3-EGFR-Exon20-NPG cell anti-proliferative assay (CellTiter 96 MTS, 72 h); conditions: Ba/F3-EGFR-Exon20-NPG cells
T1 construct: expressed in transfected cells; host or cells: Ba/F3 (murine pro-B) cells transduced with lentivirus from pLVX-IRES puro
Procedure, shortened: (§1)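 Viable-cell readout used absorbance at 490 nm of MTS-derived formazan, 2 h after reagent addition, following 72 h compound treatment at 37 °C, 5% CO2. Cells: puromycin-selected, IL-3-depleted Ba/F3 expressing EGFR exon 20 ASV or NPG; dosing 4-fold series from 10,000 nM.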

[2] = target: T2, Her2 exon 20 YVMA insertion (A775_G776ins YVMA) (Homo sapiens, UniProt P04626, INS775YVMA); test: Ba/F3-Her2 Exon20 YVMA cell anti-proliferative assay (CellTiter 96 MTS, 72 h); conditions: Ba/F3-Her2 Exon20 YVMA cells
T2 construct: expressed in transfected cells; host or cells: Ba/F3 (murine pro-B) cells transduced with lentivirus from pLVX-IRES puro
Procedure, shortened: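 Anti-proliferation: compound series (top 10,000 nM, 4-fold steps) was applied to Ba/F3-Her2 Exon20 YVMA cells grown without IL-3 for 72 h. Viability was read colorimetrically (CellTiter 96 Aqueous One, A490, 2 h reagent incubation).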

[3] = target: T3, human EGFR E746-A750 deletion and T790M Mutation (Homo sapiens, UniProt P00533, DEL746-750/T790M); test: Ba/F3-EGFR-Del/T790M cell anti-proliferative assay (CellTiter 96 MTS, 72 h); conditions: Ba/F3-EGFR-Del/T790M cells
T3 construct: expressed in transfected cells; host or cells: Ba/F3 (murine pro-B) cells transduced with lentivirus from pLVX-IRES puro
Procedure, shortened: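 Compound exposure: 72 h, 37 °C, 4-fold series topping at 10,000 nM. Target cells are Ba/F3 transduced with EGFR exon 19 deletion plus T790M, selected by puromycin and IL-3 withdrawal. Viable cell number inferred from MTS metabolic conversion, A490 read 2 h after reagent addition.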

[4] = target: T4, human EGFR exon 20 insertion ASV (V769_D770insASV) (Homo sapiens, UniProt P00533, INS769ASV); test: Ba/F3-EGFR-Exon20-ASV cell anti-proliferative assay (CellTiter 96 MTS, 72 h); conditions: Ba/F3-EGFR-Exon20-ASV cells
T4 construct: expressed in transfected cells; host or cells: Ba/F3 (murine pro-B) cells transduced with lentivirus from pLVX-IRES puro
Procedure, shortened: as §1

T4 sequence (P00533 with tags, fused parts or gaps INS769ASV): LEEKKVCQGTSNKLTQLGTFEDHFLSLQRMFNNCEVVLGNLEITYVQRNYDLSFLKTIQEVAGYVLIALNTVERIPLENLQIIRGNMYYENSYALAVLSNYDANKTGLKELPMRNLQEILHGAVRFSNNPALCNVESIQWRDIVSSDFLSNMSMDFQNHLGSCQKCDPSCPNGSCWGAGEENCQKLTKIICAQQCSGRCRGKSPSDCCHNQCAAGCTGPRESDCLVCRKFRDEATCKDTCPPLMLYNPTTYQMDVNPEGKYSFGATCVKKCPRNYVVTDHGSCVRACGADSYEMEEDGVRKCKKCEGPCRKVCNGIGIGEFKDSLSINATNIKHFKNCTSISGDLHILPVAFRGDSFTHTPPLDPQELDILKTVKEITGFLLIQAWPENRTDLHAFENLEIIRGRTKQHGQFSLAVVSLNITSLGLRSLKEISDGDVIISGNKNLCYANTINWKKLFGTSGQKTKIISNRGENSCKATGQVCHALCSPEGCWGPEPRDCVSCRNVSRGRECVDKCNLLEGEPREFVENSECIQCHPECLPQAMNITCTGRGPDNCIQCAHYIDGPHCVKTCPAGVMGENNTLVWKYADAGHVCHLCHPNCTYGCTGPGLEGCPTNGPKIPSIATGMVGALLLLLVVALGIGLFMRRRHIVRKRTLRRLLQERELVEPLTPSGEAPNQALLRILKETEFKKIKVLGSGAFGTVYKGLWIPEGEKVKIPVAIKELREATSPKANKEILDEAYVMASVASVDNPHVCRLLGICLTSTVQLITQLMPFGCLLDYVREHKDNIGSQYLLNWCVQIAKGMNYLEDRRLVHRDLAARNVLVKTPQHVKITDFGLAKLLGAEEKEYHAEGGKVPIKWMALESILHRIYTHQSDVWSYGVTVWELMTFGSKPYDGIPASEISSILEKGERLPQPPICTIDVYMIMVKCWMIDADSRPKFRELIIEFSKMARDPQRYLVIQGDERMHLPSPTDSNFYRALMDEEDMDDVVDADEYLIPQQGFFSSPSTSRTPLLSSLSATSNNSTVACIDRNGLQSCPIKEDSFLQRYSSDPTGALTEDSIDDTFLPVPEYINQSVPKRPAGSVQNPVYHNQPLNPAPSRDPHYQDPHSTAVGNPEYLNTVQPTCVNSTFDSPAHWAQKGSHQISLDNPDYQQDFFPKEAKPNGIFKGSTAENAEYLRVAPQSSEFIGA
T1 sequence (P00533 with tags, fused parts or gaps INS772GNP): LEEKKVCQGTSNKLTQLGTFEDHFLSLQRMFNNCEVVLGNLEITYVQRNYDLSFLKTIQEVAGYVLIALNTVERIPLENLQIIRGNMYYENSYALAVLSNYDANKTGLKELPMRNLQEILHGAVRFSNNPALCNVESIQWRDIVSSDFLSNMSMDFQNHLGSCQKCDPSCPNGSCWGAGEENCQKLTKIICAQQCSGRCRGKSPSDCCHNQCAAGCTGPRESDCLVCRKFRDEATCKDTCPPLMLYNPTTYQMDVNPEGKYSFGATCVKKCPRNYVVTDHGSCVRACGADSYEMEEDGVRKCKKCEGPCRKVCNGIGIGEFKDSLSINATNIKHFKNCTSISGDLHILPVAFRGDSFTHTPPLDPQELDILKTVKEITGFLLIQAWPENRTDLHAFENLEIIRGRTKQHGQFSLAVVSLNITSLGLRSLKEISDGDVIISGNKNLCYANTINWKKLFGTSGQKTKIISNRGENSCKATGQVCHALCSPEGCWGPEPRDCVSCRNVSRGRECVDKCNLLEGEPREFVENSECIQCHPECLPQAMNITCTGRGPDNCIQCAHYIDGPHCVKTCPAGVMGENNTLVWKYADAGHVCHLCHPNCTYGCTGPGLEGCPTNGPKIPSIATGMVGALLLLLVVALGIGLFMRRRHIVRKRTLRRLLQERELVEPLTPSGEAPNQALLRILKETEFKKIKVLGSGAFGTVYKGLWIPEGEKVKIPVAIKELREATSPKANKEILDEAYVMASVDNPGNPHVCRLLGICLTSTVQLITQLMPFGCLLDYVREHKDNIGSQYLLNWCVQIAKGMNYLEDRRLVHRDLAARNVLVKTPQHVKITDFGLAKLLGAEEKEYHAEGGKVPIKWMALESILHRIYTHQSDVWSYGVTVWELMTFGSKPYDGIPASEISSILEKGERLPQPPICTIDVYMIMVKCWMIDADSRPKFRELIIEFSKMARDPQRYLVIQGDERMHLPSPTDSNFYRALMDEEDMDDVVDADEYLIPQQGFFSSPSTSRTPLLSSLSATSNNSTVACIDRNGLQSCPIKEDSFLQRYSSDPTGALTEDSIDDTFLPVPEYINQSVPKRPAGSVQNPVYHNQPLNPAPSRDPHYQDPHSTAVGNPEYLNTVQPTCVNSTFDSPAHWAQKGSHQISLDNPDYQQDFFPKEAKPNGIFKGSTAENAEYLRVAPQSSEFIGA
T3 sequence (P00533 with tags, fused parts or gaps DEL746-750/T790M): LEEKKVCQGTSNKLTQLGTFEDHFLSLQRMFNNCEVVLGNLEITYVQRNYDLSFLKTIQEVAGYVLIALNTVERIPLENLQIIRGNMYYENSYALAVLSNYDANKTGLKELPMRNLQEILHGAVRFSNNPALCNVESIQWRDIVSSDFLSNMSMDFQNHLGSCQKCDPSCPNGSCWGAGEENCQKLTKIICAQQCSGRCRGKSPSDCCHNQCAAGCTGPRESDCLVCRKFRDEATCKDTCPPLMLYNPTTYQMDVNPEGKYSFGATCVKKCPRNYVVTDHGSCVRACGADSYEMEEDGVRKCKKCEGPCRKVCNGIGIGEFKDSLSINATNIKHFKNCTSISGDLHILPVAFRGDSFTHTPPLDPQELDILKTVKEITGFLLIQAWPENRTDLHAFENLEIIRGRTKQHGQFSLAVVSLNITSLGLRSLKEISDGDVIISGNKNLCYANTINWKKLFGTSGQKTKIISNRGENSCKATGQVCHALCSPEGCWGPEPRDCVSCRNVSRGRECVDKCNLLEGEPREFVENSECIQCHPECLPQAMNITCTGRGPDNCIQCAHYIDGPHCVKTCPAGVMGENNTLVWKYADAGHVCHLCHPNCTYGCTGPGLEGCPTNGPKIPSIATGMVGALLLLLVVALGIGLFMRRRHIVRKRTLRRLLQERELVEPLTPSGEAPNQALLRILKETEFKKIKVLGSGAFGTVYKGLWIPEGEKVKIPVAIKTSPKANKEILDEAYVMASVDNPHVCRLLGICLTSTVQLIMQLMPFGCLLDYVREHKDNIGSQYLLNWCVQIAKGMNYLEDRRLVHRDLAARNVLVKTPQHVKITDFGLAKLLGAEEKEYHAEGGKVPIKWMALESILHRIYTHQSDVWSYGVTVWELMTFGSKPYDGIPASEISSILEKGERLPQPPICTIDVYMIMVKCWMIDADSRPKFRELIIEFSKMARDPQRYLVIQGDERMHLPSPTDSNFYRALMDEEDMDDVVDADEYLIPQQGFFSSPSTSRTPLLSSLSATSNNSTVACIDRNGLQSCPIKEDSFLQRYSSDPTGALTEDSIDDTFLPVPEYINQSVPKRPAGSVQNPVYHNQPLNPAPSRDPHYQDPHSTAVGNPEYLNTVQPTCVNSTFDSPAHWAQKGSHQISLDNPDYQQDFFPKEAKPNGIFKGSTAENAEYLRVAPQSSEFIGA
T2 sequence (P04626 with tags, fused parts or gaps INS775YVMA): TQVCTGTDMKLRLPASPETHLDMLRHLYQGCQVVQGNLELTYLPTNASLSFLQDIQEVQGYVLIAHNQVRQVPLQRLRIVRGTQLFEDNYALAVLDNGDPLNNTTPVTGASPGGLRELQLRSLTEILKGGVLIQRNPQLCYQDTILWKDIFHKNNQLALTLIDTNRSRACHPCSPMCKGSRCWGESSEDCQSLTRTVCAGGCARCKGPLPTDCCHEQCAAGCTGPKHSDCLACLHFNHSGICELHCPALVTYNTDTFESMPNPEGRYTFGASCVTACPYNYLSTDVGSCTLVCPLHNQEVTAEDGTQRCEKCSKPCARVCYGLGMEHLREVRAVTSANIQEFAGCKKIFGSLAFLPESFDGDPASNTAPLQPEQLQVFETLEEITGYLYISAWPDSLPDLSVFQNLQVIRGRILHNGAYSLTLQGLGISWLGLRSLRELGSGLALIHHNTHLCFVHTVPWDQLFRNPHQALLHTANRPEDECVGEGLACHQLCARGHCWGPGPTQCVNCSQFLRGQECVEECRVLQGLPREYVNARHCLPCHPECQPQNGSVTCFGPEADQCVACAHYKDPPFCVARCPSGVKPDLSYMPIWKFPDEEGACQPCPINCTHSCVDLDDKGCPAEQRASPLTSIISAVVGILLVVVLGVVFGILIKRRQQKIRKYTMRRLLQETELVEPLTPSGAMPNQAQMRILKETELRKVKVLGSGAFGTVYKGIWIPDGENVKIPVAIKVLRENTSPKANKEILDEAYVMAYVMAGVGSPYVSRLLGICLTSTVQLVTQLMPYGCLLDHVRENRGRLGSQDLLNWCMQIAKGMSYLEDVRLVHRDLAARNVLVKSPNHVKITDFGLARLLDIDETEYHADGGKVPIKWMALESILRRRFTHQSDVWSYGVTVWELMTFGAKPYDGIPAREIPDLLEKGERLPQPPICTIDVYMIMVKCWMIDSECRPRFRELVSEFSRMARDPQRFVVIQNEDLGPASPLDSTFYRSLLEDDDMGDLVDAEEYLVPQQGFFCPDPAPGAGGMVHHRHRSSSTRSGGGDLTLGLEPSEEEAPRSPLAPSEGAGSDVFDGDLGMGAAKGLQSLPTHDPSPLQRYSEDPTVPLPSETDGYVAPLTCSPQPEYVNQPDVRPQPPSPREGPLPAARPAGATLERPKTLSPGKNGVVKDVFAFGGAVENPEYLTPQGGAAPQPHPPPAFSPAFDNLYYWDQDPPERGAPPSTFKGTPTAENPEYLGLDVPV

C=CC(=O)Nc1cc(Nc2ncc(C#N)c(-c3cn4c5c(cccc35)N(C)C(=O)C4)n2)c(OC)cc1N(C)CCN(C)C [Example 52, N-(5-((5-cyano-4-(1-methyl-2-oxo-2,3-dihydro-1H-pyrrolo[1,2,3-de]quinoxalin-6-yl)pyrimidin-2-yl)amino)-2-((2-(dimethylamino)ethyl)(methyl)amino)-4-methoxyphenyl)acrylamide]
IC50 [1]: < 100 nM | IC50 [2]: < 100 nM | EGFR exon 19 deletion and exon 20 T790M mutation IC50 [3]: A (IC50 value for the indicated mutant below about 100 nM) | IC50 [4]: < 100 nM

C=CC(=O)Nc1cc(Nc2ncc(-c3ccnn3C)c(-c3cn4c5c(cccc35)CCC4)n2)c(OC)cc1N(C)CCN(C)C [Example 53, N-(5-((4-(5,6-dihydro-4H-pyrrolo[3,2,1-ij]quinolin-1-yl)-5-(1-methyl-1H-pyrazol-5-yl)pyrimidin-2-yl)amino)-2-((2-(dimethylamino)ethyl)(methyl)amino)-4-methoxyphenyl)acrylamide]
IC50 [1]: < 100 nM | IC50 [2]: < 100 nM | EGFR exon 19 deletion and exon 20 T790M mutation IC50 [3]: A (IC50 value for the indicated mutant below about 100 nM) | IC50 [4]: < 100 nM

C=CC(=O)Nc1cc(Nc2ncc(C(=O)NC)c(-c3cn4c5c(cccc35)CCC4)n2)c(OC)cc1N(C)CCN(C)C [Example 54, 2-((5-acrylamido-4-((2-(dimethylamino)ethyl)(methyl)amino)-2-methoxyphenyl)amino)-4-(5,6-dihydro-4H-pyrrolo[3,2,1-ij]quinolin-1-yl)-N-methylpyrimidine-5-carboxamide]
IC50 [1]: < 100 nM | IC50 [2]: 100 to 500 nM | EGFR exon 19 deletion and exon 20 T790M mutation IC50 [3]: A (IC50 value for the indicated mutant below about 100 nM) | IC50 [4]: 100 to 500 nM

C=CC(=O)Nc1cc(Nc2ncc(C#N)c(-c3cn4c5c(cccc35)N(C)C(=O)C4)n2)c(OC)cc1N1CC[C@@H](N(C)C)C1 [Example 55, (R)-N-(5-((5-cyano-4-(1-methyl-2-oxo-2,3-dihydro-1H-pyrrolo[1,2,3-de]quinoxalin-6-yl)pyrimidin-2-yl)amino)-2-(3-(dimethylamino)pyrrolidin-1-yl)-4-methoxyphenyl)acrylamide]
IC50 [1]: < 100 nM | IC50 [2]: 100 to 500 nM | EGFR exon 19 deletion and exon 20 T790M mutation IC50 [3]: A (IC50 value for the indicated mutant below about 100 nM) | IC50 [4]: 100 to 500 nM

C=CC(=O)Nc1cc(Nc2ncc(C#N)c(-c3cn4c5c(cccc35)N(C)CC4)n2)c(OC)cc1N(C)CCN(C)C [Example 56, N-(5-((5-cyano-4-(1-methyl-2,3-dihydro-1H-pyrrolo[1,2,3-de]quinoxalin-6-yl)pyrimidin-2-yl)amino)-2-((2-(dimethylamino)ethyl)-(methyl)amino)-4-methoxyphenyl)acrylamide]
IC50 [1]: 100 to 500 nM | IC50 [2]: 500 to 1000 nM | EGFR exon 19 deletion and exon 20 T790M mutation IC50 [3]: A (IC50 value for the indicated mutant below about 100 nM) | IC50 [4]: 500 to 1000 nM

C=CC(=O)Nc1cc(Nc2ncc(Cl)c(-c3nn4c5c(cccc35)OCC4)n2)c(OC)cc1N(C)CCN(C)C [Example 57, N-(5-((5-chloro-4-(2,3-dihydro-[1,4]oxazino[2,3,4-hi]indazol-6-yl)pyrimidin-2-yl)amino)-2-((2-(dimethylamino)ethyl)(methyl)amino)-4-methoxyphenyl)acrylamide]
IC50 [1]: < 100 nM | IC50 [2]: 100 to 500 nM | EGFR exon 19 deletion and exon 20 T790M mutation IC50 [3]: A (IC50 value for the indicated mutant below about 100 nM) | IC50 [4]: < 100 nM

C=CC(=O)Nc1cc(Nc2ncc(SCCO)c(-c3cn4c5c(cccc35)CCC4)n2)c(OC)cc1N(C)CCN(C)C [Example 58, N-(5-((4-(5,6-dihydro-4H-pyrrolo[3,2,1-ij]quinolin-1-yl)-5-((2-hydroxyethyl)thio)pyrimidin-2-yl)amino)-2-((2-(dimethylamino)ethyl)(methyl)amino)-4-methoxyphenyl)acrylamide]
IC50 [1]: < 100 nM | IC50 [2]: 100 to 500 nM | EGFR exon 19 deletion and exon 20 T790M mutation IC50 [3]: A (IC50 value for the indicated mutant below about 100 nM) | IC50 [4]: < 100 nM

C=CC(=O)Nc1cc(Nc2ncc(N(C)S(C)(=O)=O)c(-c3cn4c5c(cccc35)CCC4)n2)c(OC)cc1N(C)CCN(C)C [Example 59, N-(5-((4-(5,6-dihydro-4H-pyrrolo[3,2,1-ij]quinolin-1-yl)-5-(N-methylmethylsulfonamido)pyrimidin-2-yl)amino)-2-((2-(dimethylamino)ethyl)(methyl)amino)-4-methoxyphenyl)acrylamide]
IC50 [1]: > 1000 nM | IC50 [2]: > 1000 nM | EGFR exon 19 deletion and exon 20 T790M mutation IC50 [3]: D (IC50 value for the indicated mutant greater than about 1 μM) | IC50 [4]: > 1000 nM

C=CC(=O)Nc1cc(Nc2ncc(N(C)CCO)c(-c3cn4c5c(cccc35)CCC4)n2)c(OC)cc1N(C)CCN(C)C [Example 60, N-(5-((4-(5,6-dihydro-4H-pyrrolo[3,2,1-ij]quinolin-1-yl)-5-((2-hydroxyethyl)(methyl)amino)pyrimidin-2-yl)amino)-2-((2-(dimethylamino)ethyl)-(methyl)amino)-4-methoxyphenyl)acrylamide]
IC50 [1]: < 100 nM | IC50 [2]: 100 to 500 nM | EGFR exon 19 deletion and exon 20 T790M mutation IC50 [3]: A (IC50 value for the indicated mutant below about 100 nM) | IC50 [4]: < 100 nM

C=CC(=O)Nc1cc(Nc2nccc(-c3c(N4CCC(O)C4)n4c5c(cccc35)CCC4)n2)c(OC)cc1N(C)CCN(C)C (stereo not shown) [Example 61, N-(2-((2-(dimethylamino)ethyl)(methyl)amino)-5-((4-(2-(3-hydroxypyr4rolidin-1-yl)5,6-dihydro-4H-pyrrolo[3,2,1-ij]quinolin-1-yl)pyrimidin-2-yl)amino)-4-methoxyphenyl)acrylamide]
IC50 [1]: < 100 nM | IC50 [2]: < 100 nM | EGFR exon 19 deletion and exon 20 T790M mutation IC50 [3]: A (IC50 value for the indicated mutant below about 100 nM) | IC50 [4]: < 100 nM

C=CC(=O)Nc1cc(Nc2ncc(-c3ncco3)c(-c3cn4c5c(cccc35)CCC4)n2)c(OC)cc1N(C)CCN(C)C [Example 62, N-(5-((4-(5,6-dihydro-4H-pyrrolo[3,2,1-ij]quinolin-1-yl)-5-(oxazol-2-yl)pyrimidin-2-yl)amino)-2-((2-(dimethylamino)ethyl)(methyl)amino)-4-methoxyphenyl)acrylamide]
IC50 [1]: < 100 nM | IC50 [2]: < 100 nM | EGFR exon 19 deletion and exon 20 T790M mutation IC50 [3]: A (IC50 value for the indicated mutant below about 100 nM) | IC50 [4]: < 100 nM

C=CC(=O)Nc1cc(Nc2nccc(-c3c(-c4ncco4)n4c5c(cccc35)CCC4)n2)c(OC)cc1N(C)CCN(C)C [Example 63, N-(2-((2-(dimethylamino)ethyl)(methyl)amino)-4-methoxy-5-((4-(2-(oxazol-2-yl)-5,6-dihydro-4H-pyrrolo[3,2,1-ij]quinolin-1-yl)pyrimidin-2-yl)amino)phenyl)acrylamide]
IC50 [1]: < 100 nM | IC50 [2]: 500 to 1000 nM | EGFR exon 19 deletion and exon 20 T790M mutation IC50 [3]: A (IC50 value for the indicated mutant below about 100 nM) | IC50 [4]: 100 to 500 nM

C=CC(=O)Nc1cc(Nc2ncc(OC(F)F)c(-c3cn4c5c(cccc35)CCC4)n2)c(OC)cc1N(C)CCN(C)C [Example 64, N-(5-((5-(difluoromethoxy)-4-(5,6-dihydro-4H-pyrrolo[3,2,1-ij]quinolin-1-yl)pyrimidin-2-yl)amino)-2-((2-(dimethylamino)ethyl)-(methyl)amino)-4-methoxyphenyl)acrylamide]
IC50 [1]: < 100 nM | IC50 [2]: 100 to 500 nM | EGFR exon 19 deletion and exon 20 T790M mutation IC50 [3]: A (IC50 value for the indicated mutant below about 100 nM) | IC50 [4]: < 100 nM

C=CC(=O)Nc1cc(Nc2ncc(C(=O)OC)c(-c3nn4c5c(cccc35)OCC4)n2)c(OC)cc1N(C)CCN(C)C [Example 65, Methyl 2-((5-acrylamido-4-((2-(dimethylamino)ethyl)(methyl)amino)-2-methoxyphenyl)amino)-4-(2,3-dihydro-[1,4]oxazino[2,3,4-hi]indazol-6-yl)pyrimidine-5-carboxylate]
IC50 [1]: < 100 nM | IC50 [2]: < 100 nM | EGFR exon 19 deletion and exon 20 T790M mutation IC50 [3]: A (IC50 value for the indicated mutant below about 100 nM) | IC50 [4]: < 100 nM

C=CC(=O)Nc1cc(Nc2ncc(CC)c(-c3cn4c5c(cccc35)N(C)C(=O)C4)n2)c(OC)cc1N(C)CCN(C)C [Example 66, N-(2-((2-(dimethylamino)ethyl)(methyl)amino)-5-((5-ethyl-4-(1-methyl-2-oxo-2,3-dihydro-1H-pyrrolo[1,2,3-de]quinoxalin-6-yl)pyrimidin-2-yl)amino)-4-methoxyphenyl)acrylamide]
IC50 [1]: < 100 nM | IC50 [2]: < 100 nM | EGFR exon 19 deletion and exon 20 T790M mutation IC50 [3]: A (IC50 value for the indicated mutant below about 100 nM) | IC50 [4]: < 100 nM

C=CC(=O)Nc1cc(Nc2ncc(C(=O)NC)c(-c3nn4c5c(cccc35)OCC4)n2)c(OC)cc1N(C)CCN(C)C [Example 67]
IC50 [1]: > 1000 nM | IC50 [2]: > 1000 nM | EGFR exon 19 deletion and exon 20 T790M mutation IC50 [3]: D (IC50 value for the indicated mutant greater than about 1 μM) | IC50 [4]: > 1000 nM
